These results are taken from article PMC5691139, “Structural and functional studies of SAV0551 from Staphylococcus aureus as a chaperone and glyoxalase III” (Bioscience Reports, 2017).

The term stoichiometry N denotes the number of molecules, sites or subunits per partner or assembly.

In series [1] the target is T1, SAV0551 (Staphylococcus aureus, UniProt P64312).
T1 construct: gene hchA; monomer ~32 kDa, dimer ~64 kDa
T1 sequence (P64312 1-292): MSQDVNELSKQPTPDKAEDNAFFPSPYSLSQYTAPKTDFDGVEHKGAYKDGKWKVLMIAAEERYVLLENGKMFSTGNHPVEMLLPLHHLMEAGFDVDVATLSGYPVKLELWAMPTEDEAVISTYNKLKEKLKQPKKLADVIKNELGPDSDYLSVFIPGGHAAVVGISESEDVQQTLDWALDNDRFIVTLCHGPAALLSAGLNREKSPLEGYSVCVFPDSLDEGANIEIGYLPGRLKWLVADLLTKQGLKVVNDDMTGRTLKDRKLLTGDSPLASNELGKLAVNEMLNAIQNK
Kind of series: X-ray crystal structure of the complex, […] Å. Format: binding. The note with it: co-crystal with 50 mM glyoxylate, 30% PEG3350, 100 mM BisTris pH 6.5, 293 K; active site at Cys190; additional glyoxylate in aspartate-rich cleft between non-dimer chains.

In series [2] the target is T1, SAV0551. Kind of series: 1D 1H NMR. Format: biochemical. Particulars: 60 mM methylglyoxal, 50 µM enzyme, 20 mM HEPES pH 7.5, 50 mM KCl, 2 mM DTT, 37°C.
In series [3] the target is T1, SAV0551. Kind of series: 1D 1H NMR and DNPH absorbance ([…] nm) of remaining methylglyoxal. Format: biochemical. Particulars: no cofactor; 20 mM HEPES pH 7.5, 50 mM KCl, 2 mM DTT, 37°C; 60 mM (NMR) or 6 mM substrate; 50 or 10 µM enzyme.
Series [4] deals with the molecule itself. Kind of series: SEC; size-exclusion chromatography in solution; conditions not told for this result (the purification used Superdex 75 10/300 GL in 50 mM Tris pH 7.5, 0.15 M NaCl). (In general: SEC sorts molecules by how far they enter the pores of the column.)

As for `O=CC(=O)O` [glyoxylate], the “X-ray crystal structure of the complex, 3.01 Å” value at SAV0551 [1] is 5XR3 for SAV0551 with glyoxylate.
For the molecule `C[C@@H](O)C(=O)O` [D-lactate], on SAV0551 [2], the “1D 1H NMR” value was “new peaks that correspond to the D-lactate produced by SAV0551”.
In the case of `CC(=O)C=O` [methylglyoxal], on SAV0551 [3], the “1D 1H NMR and DNPH absorbance (550 nm) of remaining methylglyoxal” value is given as “methylglyoxal can be used as a substrate for SAV0551 to produce D-lactate”.

B1: SAV0551 from Staphylococcus aureus Mu50 (natural protein, UniProt P64312 1-292, looked up)
chain: T1 sequence (P64312 1-292)
notes: SAV0551, Hsp-type DJ-1/ThiJ/PfpI superfamily protein (Hsp31 homologue, glyoxalase III) of Staphylococcus aureus Mu50 (ATCC 700699); predicted ORF amplified from genomic DNA into pET-21a(+) NdeI/XhoI; monomer ~32 kDa; also called wild-type SAV0551; native SAV0551; source: E. coli BL21(DE3), purified (Ni-NTA, Superdex 75)
As to B1, the “stoichiometry N” value in series [4] amounted to 2.
